Test results reported in patent US8586505B2 (SDS Biotech K. K., priority 2009, dated 2013).

What was measured:
Assay type in all cases: in vivo
Phytophthora infestans = experiment: whole plant or invertebrate; conditions: in Solanum lycopersicum, 96 h, read-out: Determination of control effect (preventive value)
[1] = tested on: Pseudoperonospora cubensis; experiment: Test of examining control effect on Pseudoperonospora cubensis (potted cucumber plants); conditions: 96 h, 10% wettable powder adjusted to 125 ppm, 15 ml/pot sprayed on potted cucumber plants one day before spray inoculation, assessed after 1 day wet chamber and 3 days greenhouse, read-out: Determination of control effect (preventive value) on Pseudoperonospora cubensis
In short: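 Cucumber plants (Sagamihanjiro, 2.5-leaf stage) sprayed with 125 ppm compound solution from 10% wettable powder, 15 ml/pot. One day later, spray-inoculated with P. cubensis conidia (1.0×10^4 cells/ml), kept 1 day at 21° C wet, then 3 days in greenhouse. Preventive value derived from lesion area relative to untreated plants.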

Sphaerotheca fuliginea = experiment: Test of examining control effect on Sphaerotheca fuliginea (potted cucumber plants); conditions: Podosphaera fuliginea, 336 h; 10% wettable powder adjusted to 125 ppm, 15 ml/pot sprayed on potted cucumber plants one day before spray inoculation; assessed after 14 days in greenhouse; read-out: Determination of control effect (preventive value) on Sphaerotheca fuliginea
In short: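 Cucumber plants (Sagamihanjiro, 2nd leaf stage) sprayed with 125 ppm compound (from 10% wettable powder), inoculated one day later with S. fuliginea conidia (1.0×10^5 cells/ml); lesion area scored after 14 days in greenhouse. Preventive value vs untreated; ≥60% high, <60% low control.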

Tetranychus urticae eggs = experiment: Test of examining effect on Tetranychus urticae eggs (ovicidal rate); conditions: 144 h, 0.4 ml sprayed, unhatched eggs counted six days later, read-out: Determination (ovicidal rate)
Experimental: Thereafter, the released female adults were removed. […] Six days later, the number of unhatched eggs was counted, and an ovicidal rate was calculated.

Row | SMILES | pest or weed control at 125 ppm (Phytophthora infestans) | pest or weed control at 125 µg/mL [1] | pest or weed control at 125 µg/mL (Sphaerotheca fuliginea) | pest or weed control at 250 ppm (Tetranychus urticae eggs)
1 | CC(CC#Cc1ccc(Cl)cc1)Nc1ncnc2sccc12 (centres unmarked) [compound 232] | 60 to 100% | 60 to 100% | 60 to 100% | 80 to 95%
2 | Cc1c(Cl)ncnc1NCCC#Cc1ccccc1 [compound 356] | 60 to 100% | 60 to 100% | 60 to 100% | 80 to 95%
3 | CC(C)(C)c1ccc(C#CCCNc2ncnc3sccc23)cc1 [compound 20] | 0 to 60% | 60 to 100% | 60 to 100% | 60 to 80%
4 | CC(CC#Cc1ccc(Cl)cc1C(F)(F)F)Nc1ncnc2ncccc12 (centres unmarked) [compound 384] | 0 to 60% | 60 to 100% | 60 to 100% | ≥ 95%
5 | C(#Cc1ccc(C2CCCCC2)cc1)CCNc1ncnc2ccccc12 [compound 109] | 0 to 60% | 60 to 100% | 60 to 100% | 80 to 95%
6 | CC(CC#Cc1ccc(C(F)(F)F)cc1Cl)Nc1ncnc2sccc12 (centres unmarked) [compound 257] | 60 to 100% | 60 to 100% | 60 to 100% | 80 to 95%
7 | CC(CC#Cc1ccc(F)cc1Cl)Nc1ncnc2sccc12 (centres unmarked) [compound 247] | 60 to 100% | 60 to 100% | 60 to 100% | 60 to 80%
8 | Clc1ccc(C#CCCNc2ncnc3sccc23)cc1 [compound 16] | 0 to 60% | 60 to 100% | 60 to 100% | 60 to 80%
9 | CC(CC#Cc1ccc(F)cc1C(F)(F)F)Nc1ncnc2ccccc12 (centres unmarked) [compound 286] | 60 to 100% | 60 to 100% | 60 to 100% | 80 to 95%
10 | CC(CC#Cc1ccccc1Cl)Nc1ncnc2sccc12 (centres unmarked) [compound 231] | 60 to 100% | 60 to 100% | 60 to 100% | 60 to 80%
11 | CC(CC#Cc1ccc(C(C)C)cc1C(F)(F)F)Nc1ncnc2ccccc12 (centres unmarked) [compound 289] | 0 to 60% | 60 to 100% | 60 to 100% | ≥ 95%
12 | CC(F)c1ncnc(NCCC#Cc2ccc(Cl)cc2C(F)(F)F)c1Cl (centres unmarked) [compound 377] | 0 to 60% | 60 to 100% | 60 to 100% | ≥ 95%
13 | CC(CC#Cc1ccccc1C(F)(F)F)Nc1ncnc2sccc12 (centres unmarked) [compound 233] | 60 to 100% | 60 to 100% | 60 to 100% | 80 to 95%
14 | CC(CC#Cc1ccc(Cl)cc1CO)Nc1ncnc2sccc12 (centres unmarked) [compound 245] | 60 to 100% | 60 to 100% | 60 to 100% | 80 to 95%
15 | COc1cccc(C#CCCNc2ncnc3sccc23)c1 [compound 22] | 0 to 60% | 60 to 100% | 60 to 100% | 60 to 80%
16 | Cc1ccccc1C#CCC(C)Nc1ncnc2sccc12 (centres unmarked) [compound 239] | 60 to 100% | 60 to 100% | 60 to 100% | 80 to 95%
17 | CC(CC#Cc1ccc(Cl)cc1C(F)(F)F)Nc1ncnc(C(C)F)c1Cl (centres unmarked) [compound 382] | 0 to 60% | 60 to 100% | 60 to 100% | ≥ 95%
18 | Cc1ncnc(NC(C)CC#Cc2ccc(Cl)cc2C(F)(F)F)c1Cl (centres unmarked) [compound 385] | 0 to 60% | 60 to 100% | 60 to 100% | ≥ 95%
19 | CC(CC#Cc1ccc(Cl)cc1C(F)(F)F)Nc1ncnc2sccc12 (centres unmarked) [compound 258] | 60 to 100% | 60 to 100% | 60 to 100% | 60 to 80%
20 | CC(CC#Cc1ccc(Cl)cc1C(F)(F)F)Nc1ncnc2c(F)cccc12 (centres unmarked) [compound 348] | 0 to 60% | 60 to 100% | 60 to 100% | 80 to 95%
